For one test, the system named is Aphis gossypii. As to the kind of experiment: Pesticidal activity test, rearing on artificial feed containing the test compound. In kind it is in vivo. To be noted: 144 h, read-out: Determination result of pesticidal activity; for pest or weed control at 50 ppm: test compound in DMSO to a final concentration of 50 ppm. Here is the method:
A sterilized artificial feed having the following composition (Table 3) was prepared. Then, according to the same manner as that of the method described in Handbook of Insect Rearing Vol. 1 (Elsevier Science Publishers 1985) pp. 35 to pp. 36 except that a test compound dissolved in DMSO to a final concentration of 640 μM was added at 0.5 volume of the artificial feed, and components were mixed, Aphis gossypii was reared. […] Controlling value(%)={1−(Cb×Tai)/(Cai×Tb)}×100 Letters in the equation represent the following meanings. Cb: Number of surviving worms before treatment in non-treated section Cai: Number of surviving worms at observation in non-treated section Tb: Number of surviving worms before treatment in treated section Tai: Number of surviving worms at observation in treated section […]

Test [1] addresses aphid c-Jun NH2-terminal kinase (Aphis gossypii, UniProt A0A9P0JGV4). Kind of test: In vitro aphid c-Jun NH2-terminal kinase activity measurement (IMAP fluorescence polarization, peptide substrate). The class given is biochemical, cotton aphid (Aphis gossypii). To be noted: for inhibition at 10 µM: test compound at final concentration of 10 μM, relative to DMSO, read-out: Activity of inhibiting c-Jun NH2-terminal kinase activity (inhibition degree (%) at 10 μM addition); for IC50: concentrations 100 μM to 0.03 μM, XLfit, read-out: Activity of inhibiting c-Jun NH2-terminal kinase activity (IC50, (μM)). Here is the method: Selection of a compound which modulates the activity of a c-Jun NH2-terminal kinase was performed in a system where the activity of a c-Jun NH2-terminal kinase which is modulated by adding a test compound to an in vitro reaction system using the aphid c-Jun NH2-terminal kinase prepared in Example 7 is measured and evaluated.
Measurement of the activity of the aphid c-Jun NH2-terminal kinase was performed using IMAP screening Express Kit with progressive Binding system (manufactured by Molecular Device) according to a method described in the manual annexed to the system and employing, as a substrate, a peptide comprising the amino acid sequence of SEQ ID NO: 13 to which biotin was added at the amino-terminus, and a peptide comprising the amino acid sequence of SEQ ID NO: 14 in which the carboxyl-terminus was fluorescently labeled.
For measuring the activity, the activity of the aphid c-Jun NH2-terminal kinase was measured when a test compound dissolved in DMSO was contained to a final concentration of 10 μM. In addition, the activity of the aphid c-Jun NH2-terminal kinase was measured when DMSO was contained in place of a test compound. Then, a ratio (%) of a measured value of the activity of the aphid c-Jun NH2-terminal kinase when a test compound dissolved in DMSO was contained, relative to a measured value of the activity of aphid c-Jun NH2-terminal kinase when DMSO was contained in place of the test compound was calculated, and a value obtained by subtracting the calculated value from 100% was adopted as an inhibition degree (%). Results in each test compound are shown in Table 4 in Example 9 together with results of Example 9.
The activity of aphid c-Jun NH2-terminal kinase was measured when a test compound dissolved in DMSO was contained to a final concentration of each concentration of 100 μM, 30 μM, 10 μM, 3 μM, 1 μM, 0.3 μM, 0.1 μM or 0.03 μM. IC50 (μM) was calculated from the result of each concentration at each test compound using a concentration-dependent test analyzing software XL fit (manufactured by idbs). Results are shown in Table 5 in Example 10 together with results of Example 9.
(Polarisation of emitted light reports the rotation of a fluorescent probe.)

Where [2] appears, read: test compound in DMSO to a final concentration of 640 μM, in artificial feed, surviving Aphis gossypii six days after rearing.
Where [3] appears, read: in artificial feed, surviving Aphis gossypii six days after rearing.

Each structure is given as a SMILES string. Where two headings read alike, the source gives them in different places.

This passage reports pest or weed control, inhibition and IC50 results from US20110053883A1, “AGENT THAT MODULATES PHYSIOLOGICAL CONDITION OF PESTS, INVOLVED IN INSECT C-JUN AMINO-TERMINAL KINASE ACTIVITY” (SUMITOMO CHEMICAL COMPANY, LIMITED, priority 2005, published 2011).

Sequence of aphid c-Jun NH2-terminal kinase (A0A9P0JGV4 entry or part of it): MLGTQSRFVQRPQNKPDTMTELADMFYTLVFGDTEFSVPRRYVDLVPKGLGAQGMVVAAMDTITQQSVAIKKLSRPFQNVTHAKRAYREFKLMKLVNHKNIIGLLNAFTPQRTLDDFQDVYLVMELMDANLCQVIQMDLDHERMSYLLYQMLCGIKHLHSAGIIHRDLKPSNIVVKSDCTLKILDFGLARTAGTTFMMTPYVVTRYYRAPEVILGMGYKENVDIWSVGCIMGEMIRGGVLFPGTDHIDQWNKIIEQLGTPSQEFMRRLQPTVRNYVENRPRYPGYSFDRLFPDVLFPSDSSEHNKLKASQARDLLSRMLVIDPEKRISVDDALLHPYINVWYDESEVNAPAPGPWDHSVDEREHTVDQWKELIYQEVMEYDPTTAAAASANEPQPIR

Turning to `CC(C)(C)n1nc(-c2cccc3ccccc23)c2c(N)ncnc21` [4-amino-1-tert-butyl-3-(1-naphthyl) pyrazolo(3,4-d) pyrimidine, reference compound], the pest or weed control at 640 µM with Aphis gossypii (Aphis gossypii) is above 30%. Moreover, the inhibition (commonly the relative decrease from the control value, in per cent) at 10 µM in test [1] is 68%.
For the molecule `O=C1c2ccccc2-c2n[nH]c3cccc1c23` [Anthra[1,9-CD] pyrazole-6(2H)-one, reference compound], the pest or weed control at 640 µM with Aphis gossypii (setting [2]) is above 30%. For the same molecule, in test [1], the inhibition at 10 µM turned out to be 83%.
On to `O=C1NC(=O)C(c2c[nH]c3ccccc23)=C1c1c[nH]c2ccccc12` [Arcyriarubin A, reference compound], for which, in the test on Aphis gossypii (setting [2]), the pest or weed control at 640 µM was above 30%. In test [1], the inhibition at 10 µM stood at 73%.
Take `O=C1CC2(Oc3ccccc3O2)C(=O)O1` [DB04029]: the pest or weed control at 50 ppm in the test on Aphis gossypii (setting [3]) was below 30%. Also, in test [1], the half-maximal inhibitory concentration (IC50) (usually the concentration that gives 50% inhibition) is above 100 µM.
For `OCC1OC(n2cnc3c(O)ncnc32)C(O)C1O` (stereo not shown) [DC05429], the pest or weed control at 50 ppm in the test on Aphis gossypii (setting [3]) is below 30%. For the same molecule, the IC50 in test [1] was above 100 µM.
In the case of `Sc1ncnc2nc[nH]c12` [DD08068], the pest or weed control at 50 ppm in the test with Aphis gossypii (setting [3]) was below 30%. In test [1], the IC50 is above 100 µM.
As to `COc1ccc(C(=O)c2ccccc2)c(O)c1` [DD08100], the pest or weed control at 50 ppm in the test on Aphis gossypii (setting [3]) was below 30%. Also, in test [1], the IC50 was above 100 µM.
Taken in the same sequence, the figures for `CCOC(=O)/C(=C(/F)SCC(C)=O)C(F)(F)F` [DF06524] were above 30% and 47.9 µM.
